# Tested on: B. subtilis membranes
# Experiment: DiSC3(5) depolarization assay, MAcBCE/MAkBCE
# Type: cell-based, Bacillus subtilis
# Conditions: 2 μM compound, 60 mM KCl, NaCl or NMDG-Cl; for change in DiSC3(5) fluorescence (membrane depolarization): 25° C, 10 minutes
# Description: A 2 mL liquid culture of transformed B. subtilis cells was grown at 37° C. in LB medium supplemented with 5 μg/mL kanamycin until OD600=0.6 was reached. The cells were collected by centrifugation at 2000 rpm over 3 min. The bacteria were washed twice with an NMDG-MeSO3 solution (100 mM NMDG, 10 mM HEPES, pH adjusted to 7.4 with methane sulfonic acid). […] The working dye solution was a 200 μM solution of DiSC3(5) (3,3′-dipropylthiadicarbocyanine iodide; Tokyo Chemical Industry) in DMSO. A series of 2 M solutions of NMDG-Cl, NaCl and KCl were prepared containing 10 mM HEPES; the pH was adjusted to pH 7.4 with NMDG, NaOH or KOH, respectively, to avoid any pH changes after their addition. The experiment was initiated with 3 mL of NMDG-MeSO3 in a quartz cuvette, then 5 μL of the dye solution was added (timepoint t1, 50 sec) for a 0.3 μM final concentration by the end of experiment. This was followed by the addition of 100 μL of the B. subtilis suspension (timepoint t2, 100 sec). After 150 sec (timepoint t3, 250 sec), the fluorescence stabilized to a minimum intensity and 100 μL of the 2 M NMDG-Cl, NaCl or KCl solution was added to reach ˜60 mM final concentration of the salt. The final step was the addition 0.64 μL of a 10 mM stock solution of the desired MAcBCE or MAkBCE compound in TFE (timepoint t4, 400 sec), for a final concentration of 2 μM. Negative controls were performed by adding the same volume of pure TFE to the cuvette at timepoint t4. Fluorescence intensity was recorded each second using a Horiba Fluoromax 4 spectrometer (λexcitation=640 nm; λemission=670 nm). The solution inside the cuvette was vigorously mixed throughout the experiment by using a magnetic stirrer and the temperature was kept constant at 25° C. For purposes of normalization, the fluorescence intensity was divided by the fluorescence level just before timepoint t2.
# To determine whether MAcBCE or MAkBCE compounds catalyse ion-selective flux, a set of highly bioactive members bearing ten-carbon chain lengths were tested for their ability to depolarize B. subtilis membranes using a test based on the fluorescent dye 3,3-dipropylthiadicarbocyanine (DiSC3(5)). This set of compounds were selected as four of the most toxic members of the MAcBCE and MAkBCE compound library (5-O-10, 5-A-10, 6-O-10, and 6-A-10; FIG. 3) belong to this group and all are soluble in TFE. The two non-toxic benzo(12-crown-4) scaffold members (4-O-10 and 4-A-10; FIG. 3) were used as controls.
# FIGS. 4 and 5 show the time course of DiSC3(5) fluorescence due to the addition of 2 μM 6-A-10 (FIG. 4) and 6-O-10 (FIG. 5). The average of the final fluorescence values (mean±S.E.M.) of at least three experiments are shown in FIGS. 4 and 5 and are similarly plotted for 4-A-10 (FIG. 6), 5-A-10 (FIG. 7), 6-A-10 (FIG. 8), 4-O-10 (FIG. 9), 5-O-10 (FIG. 10), and 6-O-10 (FIG. 11). Experiments were performed in a NMDG-MeSO3 solution (100 mM NMDG, 10 mM HEPES, pH adjusted to 7.4 with methane sulfonic acid). The events are: t1, addition of dye; t2, addition of B. subtilis; t3, addition of a 2 M NMDG-Cl, 2 M NaCl or a 2 M KCl solution up to a final concentration of 60 mM; t4, addition of each MAcBCE or MAkBCE compound up to 2 μM. Experiments were repeated at least four times per condition and normalized relative to the fluorescence intensity just before the addition of cells.
# The potentiometric dye DiSC3(5) was used to measure the ability of MAcBCE and MAkBCE compounds to catalyse ion-selective transport. DiSC3(5) undergoes membrane voltage-dependent partitioning between the intracellular and the extracellular medium. DiSC3(5) accumulates within a cell with a polarized membrane (negatively charged inside the cell) and is released when the cell membrane is depolarized (positively charged inside the cell). The membrane voltage in B. subtilis is roughly −120 mV, leading to DiSC3(5) accumulation in the bacteria (timepoint t2 in FIG. 4A-B). […]
structure (smiles),measurement,value
"CCCCCCCCCCc1ccc2c(c1)OCCOCCOCCOCCOCCO2 [Compound 6-A-10, 18-decyl-2,3,5,6,8,9,11,12,14,15-decahydrobenzo[b][1,4,7,10,13,16]hexaoxacyclooctadecine]",change in DiSC3(5) fluorescence (membrane depolarization),clear increase in fluorescence
"CCCCCCCCCC(=O)c1ccc2c(c1)OCCOCCOCCOCCOCCO2 [Compound 6-O-10, 1-(2,3,5,6,8,9,11,12,14,15-decahydrobenzo[b][1,4,7,10,13,16]hexaoxacyclooctadecin-18-yl)decan-1-one]","kinetics of the depolarization, ion dependence",fastest in presence of K^+ followed by Na^+ and then NMDG^+
same,change in DiSC3(5) fluorescence (membrane depolarization),clear increase in fluorescence

# From patent US20230060873A1, “COMPOUNDS AND METHODS FOR FORMING ION CHANNELS IN BIOLOGICAL MEMBRANES” (Washington University, priority 2021, published 2023)
